For data set [1], the target named is T1, CYP2B6 (Homo sapiens, UniProt P20813).
T1 sequence (P20813 1-491): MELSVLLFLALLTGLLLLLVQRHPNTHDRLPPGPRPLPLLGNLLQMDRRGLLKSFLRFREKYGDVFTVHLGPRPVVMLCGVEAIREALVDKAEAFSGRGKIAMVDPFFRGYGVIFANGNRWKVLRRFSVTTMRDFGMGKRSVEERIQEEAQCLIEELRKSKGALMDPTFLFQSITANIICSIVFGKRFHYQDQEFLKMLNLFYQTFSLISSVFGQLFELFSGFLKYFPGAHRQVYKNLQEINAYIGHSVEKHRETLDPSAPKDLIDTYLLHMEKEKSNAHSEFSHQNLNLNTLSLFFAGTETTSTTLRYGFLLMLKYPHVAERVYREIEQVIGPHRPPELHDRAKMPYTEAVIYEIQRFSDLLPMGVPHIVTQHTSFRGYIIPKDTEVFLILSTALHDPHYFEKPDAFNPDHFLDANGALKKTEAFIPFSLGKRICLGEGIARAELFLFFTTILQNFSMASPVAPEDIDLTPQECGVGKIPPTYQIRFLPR
The experiment in a line: CYP inhibition in human liver microsomes. To be noted: human, human liver microsomes, probe bupropion.

In the next data set the target is CYP2C19 (Homo sapiens, UniProt P33261). The experiment in a line: CYP inhibition in human liver microsomes. To be noted: human, human liver microsomes, probe mephenytoin. (In general: Liver microsomes are a subcellular fraction often used to study metabolism.)
CYP2C19, sequence (P33261 whole entry): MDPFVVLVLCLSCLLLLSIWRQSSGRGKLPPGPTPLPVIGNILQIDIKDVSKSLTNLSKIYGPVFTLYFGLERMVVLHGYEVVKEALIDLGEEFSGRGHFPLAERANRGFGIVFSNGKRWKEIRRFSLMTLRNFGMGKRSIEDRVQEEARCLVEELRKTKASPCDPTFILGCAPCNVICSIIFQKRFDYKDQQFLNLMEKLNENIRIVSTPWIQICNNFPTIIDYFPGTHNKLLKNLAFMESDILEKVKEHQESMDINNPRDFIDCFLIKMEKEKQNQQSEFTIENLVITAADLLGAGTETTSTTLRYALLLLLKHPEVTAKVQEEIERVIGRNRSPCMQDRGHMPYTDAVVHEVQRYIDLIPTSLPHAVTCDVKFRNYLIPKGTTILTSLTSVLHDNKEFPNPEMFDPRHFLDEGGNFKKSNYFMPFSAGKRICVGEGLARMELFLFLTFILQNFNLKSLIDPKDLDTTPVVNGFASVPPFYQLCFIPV
Another data set has as its target T2, CYP1A2 (Homo sapiens, UniProt P05177).
T2 sequence (P05177 1-516): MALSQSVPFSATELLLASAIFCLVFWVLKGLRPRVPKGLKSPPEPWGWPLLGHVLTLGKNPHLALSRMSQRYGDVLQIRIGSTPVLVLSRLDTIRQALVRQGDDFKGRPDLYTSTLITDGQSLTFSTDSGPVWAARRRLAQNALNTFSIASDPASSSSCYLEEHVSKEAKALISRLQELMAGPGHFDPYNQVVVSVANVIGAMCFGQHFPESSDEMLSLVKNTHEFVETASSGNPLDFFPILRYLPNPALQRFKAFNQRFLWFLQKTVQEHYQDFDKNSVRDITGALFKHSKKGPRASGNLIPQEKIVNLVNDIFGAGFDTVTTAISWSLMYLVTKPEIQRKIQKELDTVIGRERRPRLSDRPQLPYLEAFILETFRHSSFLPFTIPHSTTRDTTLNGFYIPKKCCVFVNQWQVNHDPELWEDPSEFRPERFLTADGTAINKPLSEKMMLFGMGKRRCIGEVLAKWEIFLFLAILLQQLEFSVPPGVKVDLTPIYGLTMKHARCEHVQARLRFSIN
The experiment in a line: CYP inhibition in human liver microsomes. The conditions noted are these: human, human liver microsomes, probe phenacetin.

The target of the next data set is CYP2C9 (Homo sapiens, UniProt P11712). In words: CYP inhibition in human liver microsomes. The conditions noted are these: human.
CYP2C9, sequence (P11712 whole entry): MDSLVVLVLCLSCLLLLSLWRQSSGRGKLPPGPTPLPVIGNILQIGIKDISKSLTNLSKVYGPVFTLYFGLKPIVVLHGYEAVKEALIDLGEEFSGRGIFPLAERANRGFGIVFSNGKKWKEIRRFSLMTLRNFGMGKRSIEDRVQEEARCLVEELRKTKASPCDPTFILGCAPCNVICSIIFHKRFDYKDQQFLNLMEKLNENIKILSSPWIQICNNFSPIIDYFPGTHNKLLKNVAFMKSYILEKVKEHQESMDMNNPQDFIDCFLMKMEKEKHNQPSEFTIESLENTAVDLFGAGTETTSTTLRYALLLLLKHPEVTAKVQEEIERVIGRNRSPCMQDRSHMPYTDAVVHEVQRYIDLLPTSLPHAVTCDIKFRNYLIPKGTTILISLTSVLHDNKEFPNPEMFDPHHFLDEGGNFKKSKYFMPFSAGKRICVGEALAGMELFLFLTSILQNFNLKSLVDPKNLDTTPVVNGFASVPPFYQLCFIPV
Another data set addresses T3, CYP2C8 (Homo sapiens, UniProt P10632).
T3 sequence (P10632 1-490): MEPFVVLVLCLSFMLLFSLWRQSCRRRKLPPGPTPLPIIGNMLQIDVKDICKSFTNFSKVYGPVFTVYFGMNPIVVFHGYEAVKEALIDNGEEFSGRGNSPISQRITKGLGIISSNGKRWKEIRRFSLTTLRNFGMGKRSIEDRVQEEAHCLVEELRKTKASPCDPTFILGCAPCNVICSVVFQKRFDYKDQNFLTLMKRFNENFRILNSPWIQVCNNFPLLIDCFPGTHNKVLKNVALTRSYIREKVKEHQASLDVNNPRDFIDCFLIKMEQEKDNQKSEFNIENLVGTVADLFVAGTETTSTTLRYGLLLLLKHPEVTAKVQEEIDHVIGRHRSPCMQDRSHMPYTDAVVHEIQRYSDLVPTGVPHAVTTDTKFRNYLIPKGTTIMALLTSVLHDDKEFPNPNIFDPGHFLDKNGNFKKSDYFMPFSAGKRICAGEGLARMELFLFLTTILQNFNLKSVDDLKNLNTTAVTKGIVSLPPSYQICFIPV
In words: CYP inhibition in human liver microsomes. The conditions noted are these: human, human liver microsomes, probe paclitaxel.

The subject of data set [2] is CYP2B6. In words: CYP induction, in situ catalytic activity, human hepatocytes.
From the text: (§1) Rifampicin as a positive control and solvent (0.1% DMSO) vehicle control were also included. The acceptance criteria for CYP induction was ≥ 2-fold induction for significant CYP activity, while the acceptance criteria for CYP mRNA was ≥ 4-fold for significant CYP induction.
In the next data set the test system is CYP2B6 mRNA. In words: CYP induction, mRNA, primary cultured human hepatocytes. To be noted: Fold Induction (CYP2B6 mRNA expression).
The test system of data set [3] is CYP2B6. Described as above. To be noted: Fold Induction (CYP2B6 mRNA expression), hepatocyte Lot 399, 1000 µM.
From the text: as §1
For another data set, the target named is CYP2D6 (Homo sapiens, UniProt P10635). In words: CYP inhibition in human liver microsomes. The conditions noted are these: human, human liver microsomes, probe bufuralol.
CYP2D6, sequence (P10635 whole entry): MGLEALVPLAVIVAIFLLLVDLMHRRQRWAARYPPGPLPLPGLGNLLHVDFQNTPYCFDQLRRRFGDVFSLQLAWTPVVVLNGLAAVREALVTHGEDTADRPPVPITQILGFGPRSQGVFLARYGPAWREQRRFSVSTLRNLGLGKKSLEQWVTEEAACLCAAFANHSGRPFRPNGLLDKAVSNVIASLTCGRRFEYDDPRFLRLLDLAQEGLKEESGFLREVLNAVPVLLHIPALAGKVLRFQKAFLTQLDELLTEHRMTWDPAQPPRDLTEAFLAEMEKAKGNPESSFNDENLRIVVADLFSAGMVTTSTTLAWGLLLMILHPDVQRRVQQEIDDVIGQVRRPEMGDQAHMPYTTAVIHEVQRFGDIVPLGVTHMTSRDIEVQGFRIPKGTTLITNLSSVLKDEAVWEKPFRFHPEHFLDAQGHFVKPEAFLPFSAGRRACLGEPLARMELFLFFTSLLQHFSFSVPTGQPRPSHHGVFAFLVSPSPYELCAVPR
In a further data set the target is CYP3A4 (Homo sapiens, UniProt P08684). The experiment in a line: in vitro. The conditions noted are these: microsomes.
CYP3A4, sequence (P08684 2-503): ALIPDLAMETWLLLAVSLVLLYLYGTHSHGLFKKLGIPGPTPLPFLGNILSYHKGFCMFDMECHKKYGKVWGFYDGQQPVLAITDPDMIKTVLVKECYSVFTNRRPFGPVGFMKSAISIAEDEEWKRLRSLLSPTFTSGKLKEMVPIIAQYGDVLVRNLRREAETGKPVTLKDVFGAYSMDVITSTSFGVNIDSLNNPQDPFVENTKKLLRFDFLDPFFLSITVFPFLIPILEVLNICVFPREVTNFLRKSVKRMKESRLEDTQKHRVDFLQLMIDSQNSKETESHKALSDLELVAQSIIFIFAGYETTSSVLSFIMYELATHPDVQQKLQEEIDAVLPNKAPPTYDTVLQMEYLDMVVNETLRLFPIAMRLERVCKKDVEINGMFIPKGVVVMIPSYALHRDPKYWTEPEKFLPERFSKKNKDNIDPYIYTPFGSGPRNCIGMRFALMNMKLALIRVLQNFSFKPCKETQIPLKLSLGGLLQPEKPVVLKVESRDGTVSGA
The nature of data set [4]: Phospholipidosis and steatosis, high content screening. In kind it is cell-based. Also on record: key to Cell count, Trend (↑↓) / Nuclear size, Trend (↑↓) / DNA structure, Trend (↑↓) / Phospholipidosis, Trend (↑↓) / Steatosis, Trend (↑↓): ↑: increasing trend of response; ↓: decreasing trend of response. To be noted: human, HepG2 cells.
Data set [5] has as its system HepG2 cells. Described as above. Type of data set: cell-based. Also on record: key to Cell count, Trend (↑↓) / Nuclear size, Trend (↑↓) / DNA structure, Trend (↑↓) / Phospholipidosis, Trend (↑↓) / Steatosis, Trend (↑↓): ↑: increasing trend of response; ↓: decreasing trend of response. The conditions noted are these: for Steatosis, MEC: (NS) = not statistically significant.

For data set [6], the system named is HepG2 cells. The experiment in a line: Mitochondrial toxicity (MT) assay panel. In kind it is cell-based. The conditions noted are these: HepG2, 100 µM. On the procedure:
The assay results were presented as % cell viability. […] After each incubation, the cells were harvested and lysed to test the MT assay panel. The Zalcitabine (positive control) was also included in this assay (Fig 3 in S1 File). The levels of Mitochondrial Oxidative Phosphorylation (OXPHOS) complex 1 (NADH dehydrogenase; ab178011, lot #GR 3339973–1), complex 3 (CytC reductase; ab124537, lot #GR3276896-3), complex 4 (CytC Oxidase; ab179880, lot #GR3273194-1), and complex 5 (ATP synthase; ab124539, lot #GR3267780-4) in the cell lysates were determined using respective indirect ELISA as per manufacturer’s instructions. The total ATP content of the cell lysates was determined using an ATP assay kit (ab83355, lot #GR3314128-2, Abcam, Cambridge, MA). The Caspase 3 content of the cell lysates was determined using the Caspase-3 assay kit (ab39401, lot #GR3322733-1, Abcam, Cambridge, MA). In addition, the total glutathione content was determined using the total glutathione (GSSG/GSH) assay kit (STA-312, lot #09100263, Oxiselect™, San Diego, CA). Using an Oxiselect™ ROS/RNS assay kit (STA-347, lot #7081343, Cell Biolabs Inc. San Diego, CA), the ROS/RNS content of the cell lysates was determined by fluorescence assay.

A further data set addresses T4, P-gp (Homo sapiens, UniProt P08183).
T4 construct: expressed in transfected cells; host or cells: MDCK-II cells
In words: Transporter mediated assay (substrate/inhibitor), MDCK-II cells. Type of data set: in vitro ADME. The conditions noted are these: human, probe quinidine 0.1 μM.

The test system of a further data set is human hepatocytes. In words: MTT assay, hepatocyte viability. Type of data set: cell-based. For orientation: Formazan colour is commonly taken as a measure of viable cells.
[7] abbreviates: # AC50 greater than the maximum surviving concentration, (NS) = not statistically significant, read-out: Steatosis, AC50.
The mark [8] stands for this setting: read-out: Phospholipidosis, AC50.

Read-outs that look alike come from different tables or passages of the source. A value given as a limit tells only on which side of the number the result lay.

This is an account of results in paper PMC11649115, “In vitro safety evaluation of dopamine D3R antagonist, R-VK4-116, as a potential medication for the treatment of opioid use disorder” (PLOS ONE, 2024).

T4 sequence (P08183 whole entry): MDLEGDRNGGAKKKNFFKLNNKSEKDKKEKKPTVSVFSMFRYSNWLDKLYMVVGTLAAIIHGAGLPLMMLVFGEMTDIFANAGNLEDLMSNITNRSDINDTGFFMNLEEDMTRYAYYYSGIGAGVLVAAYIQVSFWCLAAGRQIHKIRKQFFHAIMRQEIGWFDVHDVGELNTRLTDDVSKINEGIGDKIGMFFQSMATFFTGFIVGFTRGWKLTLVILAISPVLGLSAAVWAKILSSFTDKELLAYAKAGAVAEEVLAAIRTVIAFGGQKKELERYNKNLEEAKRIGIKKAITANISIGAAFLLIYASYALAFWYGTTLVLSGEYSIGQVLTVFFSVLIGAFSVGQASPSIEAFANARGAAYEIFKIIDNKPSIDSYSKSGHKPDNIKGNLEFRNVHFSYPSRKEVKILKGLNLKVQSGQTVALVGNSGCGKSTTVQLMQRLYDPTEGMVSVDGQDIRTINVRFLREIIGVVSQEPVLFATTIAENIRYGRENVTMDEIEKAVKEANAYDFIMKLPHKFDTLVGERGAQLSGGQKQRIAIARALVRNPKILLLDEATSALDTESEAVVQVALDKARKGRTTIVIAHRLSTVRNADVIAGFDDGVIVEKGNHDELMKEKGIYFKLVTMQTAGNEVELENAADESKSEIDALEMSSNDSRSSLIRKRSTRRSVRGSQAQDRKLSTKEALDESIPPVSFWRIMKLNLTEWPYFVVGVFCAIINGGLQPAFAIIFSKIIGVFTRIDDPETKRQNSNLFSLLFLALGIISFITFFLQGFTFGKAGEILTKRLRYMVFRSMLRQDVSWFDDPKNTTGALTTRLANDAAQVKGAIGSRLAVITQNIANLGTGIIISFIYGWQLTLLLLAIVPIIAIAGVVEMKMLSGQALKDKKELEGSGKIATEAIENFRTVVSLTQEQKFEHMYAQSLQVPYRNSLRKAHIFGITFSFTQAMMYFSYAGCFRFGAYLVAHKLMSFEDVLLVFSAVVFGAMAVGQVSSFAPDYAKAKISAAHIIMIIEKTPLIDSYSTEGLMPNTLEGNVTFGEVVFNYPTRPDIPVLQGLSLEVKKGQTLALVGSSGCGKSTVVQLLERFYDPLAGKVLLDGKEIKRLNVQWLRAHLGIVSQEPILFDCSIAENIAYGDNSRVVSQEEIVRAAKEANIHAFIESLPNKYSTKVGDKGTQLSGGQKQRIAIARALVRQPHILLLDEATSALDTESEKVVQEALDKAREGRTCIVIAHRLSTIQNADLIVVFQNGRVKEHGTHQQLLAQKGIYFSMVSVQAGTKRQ
From the text for CYP2B6 mRNA: as §1
Method for P-gp: The MDCK-II cells were treated to express the transporter of interest.
For BCRP and P-gp, the apparent permeability Papp and Efflux Ratio (ER) were calculated [16]. Net basal (B) to apical (A) flux (B → A) of the substrate transport (pmol/min/cm^2) by BCRP or P-gp was calculated by subtracting A → B flux from B → A flux.

Regarding `CC(=O)N1CCN(c2ccc(OCC3COC(Cn4ccnc4)(c4ccc(Cl)cc4Cl)O3)cc2)CC1` (stereo not drawn) [Ketoconazole], the activity at 20 min, 5 µM on CYP2B6 [1] came out at 49.1 ± 0.7%; on CYP2C19, 82.9 ± 2.8%; on CYP1A2, 70.7 ± 2.2%; on CYP2C9 (human liver microsomes, probe diclofenac), 65.8 ± 1.9%; at CYP2C8, 45.7 ± 4.7%.

The fold induction is the ratio of treated to control signal. In the case of `CCC1(c2ccccc2)C(=O)NC(=O)NC1=O` [Phenobarbital], the “Bupropion Hydroxylation” value in the data set with CYP2B6 [2] (hepatocyte Lot 336, 1000 µM) stood at 3.6 pmol/min/106 cells. Besides, the “Fold of Vehicle Control (CYP2B6 activity, bupropion hydroxylation)” value in the data set on CYP2B6 [2] (hepatocyte Lot 336, 1000 µM) came to 4.0 fold; with CYP2B6 [2] (hepatocyte Lot 348B, 1000 µM) it was 8.6 fold; in the data set on CYP2B6 [2] (hepatocyte Lot 399, 1000 µM) it was 19 fold. Also, the fold induction at 48 h, 1000 µM with CYP2B6 mRNA (hepatocyte Lot 336, 1000 µM) came out at 11; in the data set with CYP2B6 mRNA (hepatocyte Lot 348B, 1000 µM), 12; in the data set on CYP2B6 [3] it was 11.

Regarding `Nc1ccc(S(=O)(=O)Nc2ccnn2-c2ccccc2)cc1` [Sulfaphenazole], the activity at 20 min, 3 µM is 94.8 ± 7.2% on CYP2D6; 100 ± 5.8% at CYP2B6 [1]; 98.7 ± 5.2% on CYP3A4 (CYP activity (% of Control) 3A4 (Midazolam)); 95.9 ± 4.3% at CYP3A4 (CYP activity (% of Control) 3A4 (Testosterone)); 102 ± 6.5% on CYP2C19; 98.1 ± 10.8% at CYP1A2. Moreover, the activity at 20 min, 3 µM on CYP2C9 (microsomes) was 23.6 ± 3.3%; at CYP2C8, 97.6 ± 19.2%.

For orientation: AC50 means the concentration at which the activity in the assay is half-maximal. As for `CN[C@H]1CC[C@@H](c2ccc(Cl)c(Cl)c2)c2ccccc21` [Sertraline], in [4] (setting [7]), the half-maximal activity concentration (AC50) was greater than 3.13 µM. Besides, the AC50 in data set [4] (read-out: Cell count, AC50) was determined as 2.48 µM. Moreover, the half-maximal activity concentration (AC50) in data set [4] (read-out: DNA structure, AC50) turned out to be 6.23 µM. Moreover, the AC50 in data set [4] (read-out: Nuclear size, AC50) is greater than 3.13 µM. In addition, the AC50 in [4] (setting [8]) turned out to be 0.351 µM. For the same compound, in the data set with HepG2 cells [5], the “Cell count, MEC” value came out at 1.61 µM; the “Cell count, Trend (↑↓)” value was “↓”; the “DNA structure, MEC” value was determined as 0.876 µM; the “DNA structure, Trend (↑↓)” value is “↑”. Further, in the data set on HepG2 cells [5], the “Phospholipidosis, MEC” value was less than 0.0977 µM; the “Phospholipidosis, Trend (↑↓)” value was “↑”; the “Steatosis, Trend (↑↓)” value is given as “↑”; the “Steatosis, MEC” value is 0.822 (NS) μM.

`Nc1ccn([C@H]2CC[C@@H](CO)O2)c(=O)n1` [zalcitabine]: in the data set on HepG2 cells [6] (2-week), the “OXPHOS 5 and total ATP levels, caspase 3 or ROS/RNS levels” value is on record as “No significant decrease”; the “decrease in OXPHOS 1” value is listed as ~ 80%; the “decrease in OXPHOS 3” value is on record as ~ 20%; the “decrease in OXPHOS 4” value is on record as ~ 70%. In the data set on HepG2 cells [6] (two weeks), the “increase in total glutathione content” value was ~ 35%.

What is called inhibition is the relative decrease from the control value, in per cent. `COc1cc2c(cc1OC)CN(CCc1ccc(NC(=O)c3cccc4c(=O)c5cccc(OC)c5[nH]c34)cc1)CC2` [elacridar] yielded an inhibition at 3 μM against P-gp of 98.4 ± 0.53%.

`CC/C(=C(\c1ccccc1)c1ccc(OCCN(C)C)cc1)c1ccccc1` [Tamoxifen]: the AC50 in [4] (setting [7]) stood at 16.9 µM. The AC50 in [4] (read-out: Cell count, AC50) worked out at 0.442 µM. For the same compound, the AC50 in data set [4] (read-out: DNA structure, AC50) worked out at 6.3 µM. The concentration at half-maximal activity (AC50) in data set [4] (read-out: Nuclear size, AC50) is 3.05 µM. In [4] (setting [8]), the AC50 amounted to 0.764 µM. In addition, in the data set on HepG2 cells [5], the “Cell count, MEC” value came to 0.360 µM; the “Cell count, Trend (↑↓)” value is reported as “↑”; the “DNA structure, MEC” value stood at 2.57 µM; the “DNA structure, Trend (↑↓)” value is listed as “↑”. In the data set on HepG2 cells [5], the “Nuclear size, MEC” value amounted to 0.672 µM; the “Nuclear size, Trend (↑↓)” value is “↓”; the “Phospholipidosis, MEC” value was determined as 0.447 µM; the “Steatosis, Trend (↑↓)” value is recorded as “↑”. Besides, in the data set with HepG2 cells [5], the “Steatosis, MEC” value amounted to 4.38 µM. Besides, the “Hepatocyte Viability, MTT Assay Upfront (Mean)” value in the data set on human hepatocytes (50 µM) stood at 4. The “Hepatocyte Viability, Concurrent MTT Assay (Mean)” value with human hepatocytes (Lot 336, 50 µM) is 2. Besides, in the data set on human hepatocytes (Lot 348B, 50 µM), the “Hepatocyte Viability, Concurrent MTT Assay (Mean)” value was determined as 1. The “Hepatocyte Viability, Concurrent MTT Assay (Mean)” value in the data set on human hepatocytes (Lot 399, 50 µM) turned out to be 7.
